Data taken from PMC8261488, “Contraceptive progestins with androgenic properties stimulate breast epithelial cell proliferation” (EMBO Molecular Medicine, 2021).

Columns and labels:
Type in all cases: cell-based
mouse mammary organoids = test: RNA sequencing of mouse mammary organoids stimulated ex vivo with R5020; settings: R5020 20 nM, 6 h, n = 3
Text: To test this hypothesis, we sought for biological readouts in physiologically relevant models. First, we recurred to using an ex vivo assay for the transcriptional response of the mouse mammary epithelium to hormones. We isolated mammary glands from several inbred adult female mice, treated them mechanically and enzymatically to generate epithelial‐enriched organoids, which remain hormone‐responsive (Ayyanan et al, 2011), and exposed them either to vehicle or to the stable progesterone mimic promegestone (R5020, 20 nM) for 6 h and performed RNA sequencing (Fig 1A). Three independent experiments were performed, and principal component analysis (PCA) grouped the samples according to treatment (Fig 1B). […] Together, these observations confirm that PR signaling is intact in this ex vivo model and that the functionally important factors, Rankl and Wnt4, are robust PR target genes in the mouse mammary epithelium.
(§1) Animal experiments were performed in accordance with protocol approved by the Service de la Consommation et des Affaires vétérinaires of Canton de Vaud (VD 1865.3, VD 1865.4). NOD. Cg‐Prkdc^scid Il2rg^tm1Wjl/SzJ mice (Charles River), BalbC, and C57Bl6 breeders were purchased from Jackson Laboratories. Mammary glands were isolated from 18‐ to 35‐week‐old mice, lymph nodes removed, minced with surgical blades, and digested in DMEM/F12, 1% penicillin/streptomycin B with collagenase A 0.25 mg/ml (Roche). Tissue was concomitantly stimulated with hormones for 1, 2, or 6 h and centrifuged at 652 g for 5 min. Fat was removed, and pellet containing organoids washed with phosphate‐buffered saline (PBS), resuspended 5 min in 3 ml red cell blood lysis buffer and washed twice with PBS.
(§2) RNAseq libraries were prepared using Truseq Stranded RNA producing single‐end reads of 100 bp and sequenced on Illumina Hiseq 2500 instrument. […]
(§3) Sequencing reads were quality controlled using FastQC (v0.11.8) (Wingett & Andrews, 2018). Mouse raw reads were aligned to the mouse genome (mm9) and human raw reads to the human genome (hg19) using TopHat (v2.0.11) (Kim et al, 2013). […]

Rankl [1] = test: Rankl transcript levels by RT-PCR in mouse mammary organoids stimulated ex vivo
Experimental: (§4) Next, we stimulated mouse mammary organoids derived from several BalbC females with R5020 or different progestins (Fig 1A). […] No significant change in Rankl and Wnt4 transcript levels was detected during the first 2 h (Appendix Fig S1D). By 6 h of R5020 stimulation, Rankl and Wnt4 transcript levels increased 22.4 and 5.8‐fold over the vehicle‐treated control, respectively.
as §1, with “Tissue was concomitantly stimulated with hormones for 1, 2, or 6 h and centrifuged at 652 g for 5 min.” left out
(§5) Human breast microstructures and mouse organoids were homogenized in Trizol (Invitrogen). Aqueous phase containing RNA was chloroform extracted and processed with miRNeasy extraction kit (Qiagen). cDNA was synthesized using random p(dN)6 primers (Roche) and MMLV reverse transcriptase (Invitrogen). SYBR Green PCR Core Reagent System (Qiagen) was used for semi‐quantitative real time (RT‐PCR) using the following primers.

Wnt4 [2] = test: Wnt4 transcript levels by RT-PCR in mouse mammary organoids stimulated ex vivo
Experimental: as §4
as §1, with “Tissue was concomitantly stimulated with hormones for 1, 2, or 6 h and centrifuged at 652 g for 5 min.” left out
as §5

[3] = tested on: human breast tissue microstructures (EpCAM+ cells); test: RNA sequencing of EpCAM+ cells from human breast tissue microstructures stimulated ex vivo; settings: 14–18 h exposure, n = 3
Text: Having ascertained with mammary tissue from inbred mice that androgenic and anti‐androgenic progestins have different effects on the expression of important PR target genes, we set out to assess the transcriptional response to PR signaling in the human breast epithelium. In view of our goal to perform in vivo experiments with the natural ligand progesterone, we compared the effects of progesterone to those of its stable analog R5020 which is commonly used for in vitro experiments on breast epithelial cells. For this, we used an ex vivo approach with human breast tissue similar to the mouse organoid technique used above that maintains hormone responsiveness (Tanos et al, 2013; Sflomos et al, 2015). In brief, 3 fresh mammoplasty tissue from women with follicular phase progesterone levels were cut into 1 mm^3 pieces and aliquoted for digestion with collagenase and concomitant exposure to either vehicle, R5020, or progesterone for 14–18 h. Tissue microstructures that contain epithelial cells, immune cells, and fibroblasts in varying proportions were recovered. To reduce interpatient variation as far as it relates to different ratios of various cell types, at the end of the treatment, the tissue microstructures were dissociated to single cells and enriched for epithelial cells by FACS sorting with antibodies against the epithelial cell surface marker EpCAM (Fig 2A). The EpCAM^+ cells were processed for RNA sequencing. […] Progesterone affected expression levels of 65 genes, whereas R5020 affected 112 genes, including RANKL (adj.P < 0.05) (Appendix Fig S2A). More than 90% of the progesterone‐induced gene expression changes were induced by R5020 (Fig 2C). […] R5020 induced higher‐fold changes as indicated by the estimated slope of the curve being > 1 (P < 0.0001). […]
All experiments conformed to the principles set out in the WMA Declaration of Helsinki and the Department of Health and Human Services Belmont Report. […] Human tissue samples were mechanically and enzymatically dissociated, single cells were prepared, counted, and spin infected using Lenti‐ONE CMV‐GFP(2A)Luc2 WPRE VSV, V621004001, or pR980 Luc2GFP (GEGTECH) at a multiplicity of infection of 1 at 2.500 rpm for 3 h at room temperature in 500 μl of serum‐free medium. […]
as §2, §3

Rankl [4] = test: Rankl induction by R5020 or LNG in mouse mammary organoids co-treated with AR antagonists; settings: antagonist 100 µM, 6 h, C57Bl6-derived organoids
Experimental: (§6) Enzalutamide (100 µM) abrogated Rankl induction by R5020 (P < 0.05) but had no effect on Wnt4 induction (Fig 1H).
as §1, §5

Wnt4 [5] = test: Wnt4 induction by R5020 or LNG in mouse mammary organoids co-treated with AR antagonists; settings: antagonist 100 µM, 6 h, C57Bl6-derived organoids
Experimental: as §6, §1, §5

[6] = BalbC females, 6 h of stimulation
[7] = BalbC-derived organoids, 24 h of stimulation

SMILES | Pgr transcripts, down-modulation (RNA sequencing) (mouse mammary organoids) [fold] | Rankl transcripts, induction over control samples (RNA sequencing) (mouse mammary organoids) [fold] | Wnt4 induction (RNA sequencing) (mouse mammary organoids) [fold] | Rankl transcript levels over vehicle-treated control (Rankl [1]; [6]) [fold] | Rankl transcript induction (Rankl [1]; [7]) [fold] | Rankl transcript induction (Rankl [1]; C57Bl/6 mice, 6 h, 20 nM) [fold] | Wnt4 transcript levels over vehicle-treated control (Wnt4 [2]; [6]) [fold] | Wnt4 transcript induction (Wnt4 [2]; [7]) [fold] | Wnt4 transcript induction (Wnt4 [2]; C57Bl/6 mice, 6 h, 20 nM) [fold] | RANKL expression (variant stabilized gene expression values) [3] | WNT4 expression (variant stabilized gene expression values) [3] | effect of AR antagonist on Rankl induction by R5020 (Rankl [4]) | effect of AR antagonist on Wnt4 induction by R5020 (Wnt4 [5])
CCC(=O)[C@@]1(C)CC[C@H]2[C@@H]3CCC4=CC(=O)CCC4=C3CC[C@@]21C [R5020, promegestone] | 0.2 | 10.07 | 3.1 | 22.4 | 83 | 10.9 | 5.8 | 26 | 4.2 | increased expression | increased expression |  | 
CC(O)(CS(=O)(=O)c1ccc(F)cc1)C(=O)Nc1ccc(C#N)c(C(F)(F)F)c1 (stereo not shown) [bicalutamide] |  |  |  |  |  |  |  |  |  |  |  | abrogated | no significant effect
